# Measurements: article PMC6792352, “Limited Chemical Structural Diversity Found to Modulate Thyroid Hormone Receptor in the Tox21 Chemical Library” (Environmental Health Perspectives, 2019)
# Where a name gives a salt, the structure may show the parent alone.
# Assay: in vitro
# Details: rat, gh3-tre-luc cells
compound,measurement,setting,value
NS(=O)(=O)c1cc(-c2nnn[nH]2)c(NCc2cccs2)cc1Cl [Azosemide],CC50 at 24 h,AC50 (uM) modified / 1000,> 50 µM
CC(C)OC(=O)C(O)(c1ccc(Cl)cc1)c1ccc(Cl)cc1 [Chloropropylate],CC50 at 24 h,"AC50 (uM) modified / 1000, Tox21_110001=Tox21_301914, viability, 1 nM T3 present, 24 h",74.2 µM
CC(C)NC(=O)N1CC(=O)N(c2cc(Cl)cc(Cl)c2)C1=O [Iprodione],CC50 at 24 h,AC50 (uM) modified / 1000,> 90 µM
Cc1occc1SSc1ccoc1C [Bis(2-methyl-3-furyl)disulfide],CC50 at 24 h,AC50 (uM) modified / 1000,> 90 µM
CCCN1CCC[C@@H]2Cc3n[nH]cc3C[C@H]21 [(-)-Quinpirole hydrochloride],CC50 at 24 h,AC50 (uM) modified / 1000,> 50 µM
C=CCN(CC=C)C(=O)C(Cl)Cl [Dichlormid],CC50 at 24 h,AC50 (uM) modified / 1000,> 90 µM
c1ccc(Sc2ccccc2)cc1 [Diphenyl sulfide],CC50 at 24 h,AC50 (uM) modified / 1000,> 90 µM
COc1ccc(COC=O)cc1 [4-Methoxybenzyl formate],CC50 at 24 h,AC50 (uM) modified / 1000,> 90 µM
"CCCCCCC(O)CO (stereo not shown) [1,2-Octanediol]",CC50 at 24 h,AC50 (uM) modified / 1000,> 90 µM
CCOS(=O)(=O)OCC [Diethyl sulfate],CC50 at 24 h,AC50 (uM) modified / 1000,> 90 µM
Cc1ccc(N)cc1O [5-Amino-2-methylphenol],CC50 at 24 h,AC50 (uM) modified / 1000,> 90 µM
CC(=O)NCc1c(I)c(NC(C)=O)c(I)c(C(=O)O)c1I [Iodamide],CC50 at 24 h,AC50 (uM) modified / 1000,> 50 µM
ClCCBr [1-Chloro-2-bromoethane],CC50 at 24 h,"AC50 (uM) modified / 1000, Tox21_110001=Tox21_201726, viability, 1 nM T3 present, 24 h",> 90 µM
CC(C)C(=O)c1c(C(C)C)nn2ccccc12 [Ibudilast],CC50 at 24 h,AC50 (uM) modified / 1000,> 50 µM
"OCCCCC(O)CO (stereo not shown) [1,2,6-Hexanetriol]",CC50 at 24 h,AC50 (uM) modified / 1000,> 90 µM
O=C1CN2Cc3c(ccc(Cl)c3Cl)N=C2N1 [Anagrelide hydrochloride],CC50 at 24 h,AC50 (uM) modified / 1000,> 50 µM
FC(F)OC(Cl)C(F)(F)F (stereo not shown) [Isoflurane],CC50 at 24 h,AC50 (uM) modified / 1000,> 90 µM
COC(C(=O)O)c1ccccc1 (stereo not shown) [Methoxyphenylacetic acid],CC50 at 24 h,AC50 (uM) modified / 1000,> 90 µM
O=C1CCCCCCCCCCCN1 [Azacyclotridecan-2-one],CC50 at 24 h,AC50 (uM) modified / 1000,> 90 µM
CCOC(=O)c1ccccc1OC [Ethyl 2-methoxybenzoate],CC50 at 24 h,AC50 (uM) modified / 1000,> 90 µM
CCc1ccccc1O [2-Ethylphenol],CC50 at 24 h,AC50 (uM) modified / 1000,> 90 µM
COc1cccc(O)c1O [3-Methoxycatechol],CC50 at 24 h,AC50 (uM) modified / 1000,70.4 µM
"Nc1ccc(Oc2ccc(N)cc2)cc1 [4,4'-Oxydianiline]",CC50 at 24 h,AC50 (uM) modified / 1000,> 90 µM
Cc1cccc(C(C)c2cnc[nH]2)c1C (stereo not shown) [Medetomidine hydrochloride],CC50 at 24 h,AC50 (uM) modified / 1000,> 50 µM
OC/C=C/c1ccccc1 [3-Phenyl-2-propen-1-ol],CC50 at 24 h,AC50 (uM) modified / 1000,> 100 µM
Nc1ccc2cc3ccc(N)cc3nc2c1 [Proflavin hydrochloride],CC50 at 24 h,AC50 (uM) modified / 1000,> 90 µM
CC1CC(=O)NN=C1c1ccc(NCC(C)(C)NCC(O)COc2cc(Cl)ccc2C#N)cc1 (stereo not shown) [Oberadilol],CC50 at 24 h,AC50 (uM) modified / 1000,> 50 µM
C[C@@H](O)[C@H]1C(=O)N2C(C(=O)O)=C(S[C@@H]3CN[C@H](C(=O)N(C)C)C3)[C@H](C)[C@H]12 [Meropenem],CC50 at 24 h,AC50 (uM) modified / 1000,> 50 µM
O=C(O)c1ccc2c(c1)nc(C(=O)NC1CCN(C3CC3)CC1)n2Cc1cc(-c2ccc(Cl)s2)on1 [AVE3247],CC50 at 24 h,AC50 (uM) modified / 1000,> 20 µM
CCCOCC(C)OCC(C)O (stereo not shown) [Butyl dipropasol solvent],CC50 at 24 h,AC50 (uM) modified / 1000,> 90 µM
Sc1nc2ccccc2[nH]1 [2-Mercaptobenzimidazole],CC50 at 24 h,"AC50 (uM) modified / 1000, Tox21_110001=Tox21_201828, viability, 1 nM T3 present, 24 h",> 90 µM
C=CCOC(=O)/C=C\C(=O)OCC=C [Diprop-2-en-1-yl (2Z)-but-2-enedioate],CC50 at 24 h,AC50 (uM) modified / 1000,> 90 µM
"OCCCCCO [1,5-Pentanediol]",CC50 at 24 h,AC50 (uM) modified / 1000,> 100 µM
CC(CCc1ccc(O)cc1)NCC(O)c1ccc(O)cc1 (stereo not shown) [Ractopamine hydrochloride],CC50 at 24 h,AC50 (uM) modified / 1000,> 50 µM
COc1ccc2nc(N)sc2c1 [2-Amino-6-methoxybenzothiazole],CC50 at 24 h,AC50 (uM) modified / 1000,> 90 µM
CC(=O)Oc1ccc(C(C)=O)cc1 [4-Acetylphenyl acetate],CC50 at 24 h,AC50 (uM) modified / 1000,> 100 µM
"Oc1nc2ccc(Cl)cc2o1 [6-Chloro-2,3-dihydrobenzoxazol-2-one]",CC50 at 24 h,AC50 (uM) modified / 1000,> 90 µM
CCOC(=O)[C@H](CCc1ccccc1)N[C@@H](C)C(=O)N(CC(=O)O)C1Cc2ccccc2C1 [Delapril hydrochloride],CC50 at 24 h,AC50 (uM) modified / 1000,> 50 µM
OCc1c[nH]c2ccccc12 [Indole-3-carbinol],CC50 at 24 h,AC50 (uM) modified / 1000,> 90 µM
"CC(CCCCN)C(C)(C)N (stereo not shown) [Trimethylhexane-1,6-diamine]",CC50 at 24 h,AC50 (uM) modified / 1000,> 200 µM
O=C(OCc1ccccc1)c1ccccc1O [Benzyl salicylate],CC50 at 24 h,AC50 (uM) modified / 1000,> 90 µM
CNC(=O)c1ccccc1 [N-Methylbenzamide],CC50 at 24 h,AC50 (uM) modified / 1000,> 90 µM
C#CCN(C)CCCOc1ccc(Cl)cc1Cl [Clorgyline hydrochloride],CC50 at 24 h,AC50 (uM) modified / 1000,28.1 µM
